Test results as given in US7273866B2, “2-aryl thiazole derivatives as KCNQ modulators” (Bristol-Myers Squibb Company, priority 2002, dated 2007).

Tests used:
mKCNQ2 channels = target: T1, mKCNQ2 channels (Mus musculus, UniProt Q9Z351); assay: KCNQ patch-clamp (whole-cell recordings, HEK 293 stable cell line); type: cell-based; settings: current of KCNQ2 channels, HEK 293 cells expressing mKCNQ2
T1 construct: expressed in transfected cells
Procedure: KCNQ Patch-clamp. Whole-cell patch-clamp recordings were made from an HEK 293 stable cell line expressing mKCNQ2 channels, maintained in culture for 1-2 days. Patch pipettes had initial resistances of 2.5-4 MΩ. Currents were recorded with an EPC-9 amplifier (HEKA, Lambrecht, Germany) controlled with software (Pulse, HEKA) run on a standard lab PC. Series resistance compensation was used during current recording, and set at 80%. The series resistance (R) and cell capacitance (C) were determined electronically by subtracting the capacitive currents at the onset and offset of a 5 mV voltage step. The cancellation of whole-cell capacitive transients was virtually complete in all cells. Analog current signals were low-pass filtered at 2.9 kHz using a four-pole Bessel filter −3 dB) and stored on a local network server computer at a sampling rate of […]. All recordings were performed at room temperature (20-22° C.). The pipette solution contained (mM) KCl, 150; CaCl2, 2.5; EGTA, 5; MgCl2, 1; HEPES, 10; pH to 7.3 with KOH, and Osmolality of 290-300 mOsm. The extracellular solution contained (mM): NaCl, 140; KCl, 2.5; CaCl2, 2.5; MgCl2, 1; glucose, 10; HEPES, 10; pH to 7.3 with NaOH, and Osmolality of 305-310 mOsm. […]

[1] = system: peripheral mononeuropathy nerve injury-induced tactile allodynia; assay: Chung model of neuropathic pain (Chung surgery and von Frey test); type: in vivo, Sprague Dawley rats; settings: 10 mg/kg, i.v.; von Frey thresholds over 90 min, rat
Procedure: Chung model of neuropathic pain (Chung surgery and von Frey test). To test agents for activity against peripheral mononeuropathy nerve injury-induced tactile allodynia, male Sprague Dawley rats (wt. 120-160 g) were surgically prepared with unilateral tight ligation of spinal nerves L5 and L6 following the method of Kim and Chung (Kim S. H., Chung J. M. (1992) Pain, September; 50(3):355-63). After 3-4 weeks recovery, paw withdrawal to light touch was assessed as described by Chaplan et al. (Chaplan S. R., et al., (1994) J. Neurosci Methods, July; 53(1):55-63). […] After acclimation, baseline von Frey thresholds were assessed for the injured hindpaw at −15 min. […] Following drug administration, von Frey thresholds were measured at 15, 30, 60 and 90 min. Data were analyzed by a 2-way repeated measures analysis of variance followed by Dunnett's test (p<0.05). […]
Reversal of neuropathic pain behavior may be expressed as a percentage (0-100%) of the maximum possible effect, over and above the vehicle effects. […]
For example, a compound which immediately reversed neuropathic pain behavior to normal levels, such that animals only responded to the highest von Frey filament (15 g), and maintained normal levels through out the post-drug testing period (90 min) would be calculated as Δ% MPE=100%.

EC50 (mKCNQ2 channels): 3 nM
SMILES: CC(NC(=O)c1sc(-c2ccccc2F)nc1C(F)(F)F)c1cccc(OC(F)(F)F)c1 (centres unmarked) [Example 21, 2-(2-fluorophenyl)-4-(trifluoromethyl)-N-[1-[3-(trifluoromethoxy)phenyl]ethyl]-5-thiazolecarboxamide]
AUC (Δ % MPE) [1]: 28 (10 mg/kg, i.v.) Δ % MPE
